23 compounds from patent publication US8324390B2, “Tetrazole-substituted anthranilamides as pesticides” (Bayer CropScience AG, priority 2008, dated 2012) can be followed below.

Where two headings read alike, the source gives them in different places. Some results are limits rather than exact numbers.

Series [1] has as its system larvae of the mustard beetle (Phaedon cochleariae). The series can be described thus: Phaedon test (PHAECO spray treatment). Conditions: Phaedon cochleariae, in Brassica rapa, foliar, read-out: effect in % (beetle larvae killed).
Series [2] relates to caterpillars of the armyworm (Spodoptera frugiperda). The series can be described thus: Spodoptera frugiperda test (SPODFR spray treatment). Conditions: Spodoptera frugiperda, foliar, read-out: effect in % (caterpillars killed). In kind it is in vivo. From the text:
(§1) Solvent: 78.0 parts by weight of acetone

Series [3] relates to green peach aphid (Myzus persicae). The series can be described thus: Myzus test (MYZUPE spray treatment). Conditions: Myzus persicae, foliar, read-out: effect in % (aphids killed). In kind it is in vivo.
Description: Solvent: 78 parts by weight of acetone
as §1

Series [4] in a line: log P determination by HPLC (EEC Directive 79/831 Annex V.A8). Format: physicochemical. Here is the method: The measurements were carried out using an Agilent 1100 LC system with a 50*4.6 Zorbax Eclipse C18 1.8 μm column (oven temperature 55° C., flow rate 2.0 ml/min).
The following mobile phases were used:
Mobile phase A: acetonitrile+1000 μl of formic acid/l
Mobile phase B: Millipore water+900 μl of formic acid/l

Where [5] appears, read: application rate 100 g/ha, maize leaf discs.
[6] abbreviates: application rate 100 g/ha, Chinese cabbage leaf discs.
The mark [7] stands for this setting: reversed-phase HPLC, Zorbax Eclipse C18 column, determined by HPLC according to EEC Directive 79/831 Annex V.A8, read-out: log P.
Where [8] appears, read: reversed-phase HPLC, Zorbax Eclipse C18 column, by HPLC according to EEC Directive 79/831 Annex V.A8, read-out: log P.

In the case of `Cc1cc(I)cc(C(N)=O)c1NC(=O)c1cc(Cn2nnnc2C(F)(F)F)nn1-c1ncccc1C(F)(F)F` [Example 455], the pest or weed control at 100 g/ha in series [1], in series [2] (setting [5]) and in series [3] (setting [6]) was at least 80% in each case. The chromatographic logP in series [4] (setting [7]) is 2.83.

With `Cc1cc(Cl)cc(C(N)=O)c1NC(=O)c1cc(Cn2nnc(C(F)(F)F)n2)nn1-c1ncccc1Br` [Example 330], the pest or weed control at 100 g/ha in series [1], in series [2] (setting [5]) and in series [3] (setting [6]) was at least 80% throughout. Besides, the chromatographic logP in series [4] (setting [8]) was 2.76.

In the case of `CNC(=O)c1cc(C#N)cc(C)c1NC(=O)c1cc(Cn2nnc(C(F)(F)F)n2)nn1-c1ccccc1Br` [Example 349], the pest or weed control at 100 g/ha in series [1], in series [2] (setting [5]) and in series [3] (setting [6]) was at least 80% throughout. In addition, the chromatographic logP in series [4] (setting [8]) came to 3.15.

`CC(C)NC(=O)c1cc(Cl)cc(Cl)c1NC(=O)c1cc(Cn2nnc(C(F)(F)C(F)(F)F)n2)nn1-c1ncccc1Cl` [Example 153]: the pest or weed control at 100 g/ha in series [1], in series [2] (in Zea mays) and in series [3] (in Brassica rapa) was at least 80% each time. The chromatographic logP in series [4] (log P) was 3.81.

Regarding `Cc1cc(Cl)cc(C(=O)NC(C)CF)c1NC(=O)c1cc(Cn2nnc(C(F)(F)F)n2)nn1-c1ncccc1Cl` (centres unmarked) [Example 328], the pest or weed control at 100 g/ha in series [1], in series [2] (in Zea mays) and in series [3] (in Brassica rapa) was at least 80% throughout. Moreover, the chromatographic logP in series [4] (log P) turned out to be 3.3.

For `CSC[C@H](C)NC(=O)c1cc(Cl)cc(Cl)c1NC(=O)c1cc(Cn2nnc(C(F)(F)F)n2)nn1-c1ncccc1Cl` [Example 64], the pest or weed control at 100 g/ha in series [1], in series [2] (in Zea mays) and in series [3] (in Brassica rapa) was at least 80% each time. For the same compound, the chromatographic logP in series [4] (log P) came out at 3.62.

`Cc1cc(I)cc(C(N)=O)c1NC(=O)c1cc(Cn2nnc(C(F)(F)F)n2)nn1-c1ncccc1Br` [Example 351]: the pest or weed control at 100 g/ha in series [1], in series [2] (setting [5]) and in series [3] (setting [6]) was at least 80% each time. In series [4] (setting [8]), the chromatographic logP worked out at 2.95.

For the compound `Cc1cc(C#N)cc(C(=O)NC(C)C)c1NC(=O)c1cc(Cn2nnc(C(F)(F)C(F)(F)F)n2)nn1-c1ncccc1Br` [Example 423], the pest or weed control at 100 g/ha in series [1], in series [2] (setting [5]) and in series [3] (setting [6]) was at least 80% throughout. The chromatographic logP in series [4] (setting [7]) worked out at 3.46.

As to `Cc1cc(Cl)cc(C(=O)NC2CC2)c1NC(=O)c1cc(Cn2nnnc2C(F)(F)C(F)(F)F)nn1-c1ncccc1Cl` [Example 200], the pest or weed control at 100 g/ha in series [1], in series [2] (in Zea mays) and in series [3] (in Brassica rapa) was at least 80% in each case. This compound also gave a chromatographic logP in series [4] (log P) of 3.32.

In the case of `CNC(=O)c1cc(Cl)cc(C)c1NC(=O)c1cc(Cn2nnc(C3CC3)n2)nn1-c1ncccc1Cl` [Example 104], the pest or weed control at 100 g/ha in series [1], in series [2] (in Zea mays) and in series [3] (in Brassica rapa) was at least 80% throughout. The same compound had a chromatographic logP in series [4] (log P) of 2.52.

Turning to `Cc1cc(Cl)cc(C(=O)NC(C)C)c1NC(=O)c1cc(Cn2nnnc2C(F)F)nn1-c1ncccc1Cl` [Example 462], the pest or weed control at 100 g/ha in series [1], in series [2] (in Zea mays) and in series [3] (in Brassica rapa) was at least 80% throughout. The same compound returned a chromatographic logP in series [4] (log P) of 2.75.

As for `Cc1cc(Cl)cc(C(=O)NCC#N)c1NC(=O)c1cc(Cn2nnc(C(F)(F)F)n2)nn1-c1ncccc1Cl` [Example 19], the pest or weed control at 100 g/ha in series [1], in series [2] (in Zea mays) and in series [3] (in Brassica rapa) was at least 80% in each case. Moreover, in series [4] (log P), the chromatographic logP was found to be 2.93.

For `Cc1cc(C#N)cc(C(N)=O)c1NC(=O)c1cc(Cn2nnnc2C(F)(F)F)nn1-c1ncccc1Br` [Example 479], the pest or weed control at 100 g/ha in series [1], in series [2] (setting [5]) and in series [3] (setting [6]) was at least 80% in each case. Besides, the chromatographic logP in series [4] (setting [7]) came out at 2.28.

For `Cc1cc(F)cc(C(=O)NC(C)C)c1NC(=O)c1cc(Cn2nnnc2C(F)(F)F)nn1-c1ncccc1Cl` [Example 168], the pest or weed control at 100 g/ha in series [1], in series [2] (in Zea mays) and in series [3] (in Brassica rapa) was at least 80% throughout. For the same compound, the chromatographic logP in series [4] (log P) is 2.76.

As for `Cc1cc(Cl)cc(C(=O)NC(C)C)c1NC(=O)c1cc(Cn2nnc(C(F)(F)F)n2)nn1-c1ncccc1Br` [Example 334], the pest or weed control at 100 g/ha in series [1], in series [2] (setting [5]) and in series [3] (setting [6]) was at least 80% each time. Moreover, the chromatographic logP in series [4] (setting [8]) was found to be 3.49.

Take `Cc1cc(F)cc(C(=O)NC(C)(C)C)c1NC(=O)c1cc(Cn2nnc(C(F)(F)C(F)(F)F)n2)nn1-c1ncccc1Cl` [Example 221]: the pest or weed control at 100 g/ha in series [1], in series [2] (in Zea mays) and in series [3] (in Brassica rapa) was at least 80% throughout. In series [4] (log P), this compound registered a chromatographic logP of 3.88.

For the compound `CNC(=O)c1cc(I)cc(C)c1NC(=O)c1cc(Cn2nnc(C(F)F)n2)nn1-c1ncccc1Cl` [Example 273], the pest or weed control at 100 g/ha in series [1], in series [2] (in Zea mays) and in series [3] (in Brassica rapa) was at least 80% in each case. In series [4] (log P), this compound displayed a chromatographic logP of 2.73.

For the compound `CNC(=O)c1cc(Cl)cc(Cl)c1NC(=O)c1cc(Cn2nnnc2C(F)F)nn1-c1ncccc1Cl` [Example 476], the pest or weed control at 100 g/ha in series [1], in series [2] (in Zea mays) and in series [3] (in Brassica rapa) was at least 80% in each case. The chromatographic logP in series [4] (log P) is 2.22.

In the case of `CC(C)NC(=O)c1cc(Cl)cc(Cl)c1NC(=O)c1cc(Cn2nnnc2C(F)F)nn1-c1ncccc1Cl` [Example 466], the pest or weed control at 100 g/ha in series [1], in series [2] (in Zea mays) and in series [3] (in Brassica rapa) was at least 80% throughout. Further, in series [4] (log P), the chromatographic logP came to 2.71.

Turning to `CNC(=O)c1cc(I)cc(C)c1NC(=O)c1cc(Cn2nnc(C(F)(F)F)n2)nn1-c1ncccc1Br` [Example 410], the pest or weed control at 100 g/ha in series [1], in series [2] (setting [5]) and in series [3] (setting [6]) was at least 80% in each case. In addition, in series [4] (setting [7]), the chromatographic logP worked out at 3.26.

Take `CSC[C@H](C)NC(=O)c1cc(C)cc(C)c1NC(=O)c1cc(Cn2nnc(C(F)(F)F)n2)nn1-c1ncccc1Cl` [Example 86]: the pest or weed control at 100 g/ha in series [1], in series [2] (in Zea mays) and in series [3] (in Brassica rapa) was at least 80% throughout. Also, the chromatographic logP in series [4] (log P) stood at 3.5.

`Cc1cc(C#N)cc(C(=O)NCc2ccco2)c1NC(=O)c1cc(Cn2nnc(C(F)(F)F)n2)nn1-c1ncccc1Cl` [Example 77]: the pest or weed control at 100 g/ha in series [1], in series [2] (in Zea mays) and in series [3] (in Brassica rapa) was at least 80% in each case. The chromatographic logP in series [4] (log P) is 3.14.

Regarding `CSC[C@H](C)NC(=O)c1cc(I)cc(C)c1NC(=O)c1cc(Cn2nnc(C(F)(F)F)n2)nn1-c1ncccc1Cl` [Example 74], the pest or weed control at 100 g/ha in series [1], in series [2] (in Zea mays) and in series [3] (in Brassica rapa) was at least 80% throughout. In series [4] (log P), this compound showed a chromatographic logP of 3.9.
